Experimental data from PMC4632759, “Studies on [5,6]-Fused Bicyclic Scaffolds Derivatives as Potent Dual B-Raf^V600E/KDR Inhibitors Using Docking and 3D-QSAR Approaches” (International Journal of Molecular Sciences, 2015).
pIC50: −log10 of the molar value. Where two headings read alike, the source gives them in different places.

How the values were obtained:
[1] = target: T1, B-Raf^V600E (Homo sapiens, UniProt P15056, V600E); set-up: method as in PMID 22376051, PMID 22763369, PMID 22883026, PMID 23906342; conditions: literature values used as 3D-QSAR data set; read-out: Kinase IC50 B-Raf^V600E; cited from earlier work
[2] = target: T2, VEGFR2 (Homo sapiens, UniProt P35968); set-up: method as in PMID 22376051, PMID 22763369, PMID 22883026, PMID 23906342; conditions: literature values used as 3D-QSAR data set; read-out: Kinase IC50 VEGFR2; cited from earlier work
[3] = test system: wild-type B-Raf; set-up: method as in PMID 22376051, PMID 22763369, PMID 22883026, PMID 23906342; conditions: cited from earlier work
[4] = test system: C-Raf; set-up: method as in PMID 22376051, PMID 22763369, PMID 22883026, PMID 23906342; conditions: cited from earlier work
[5] = target: T1, B-Raf^V600E; assay: B-Raf^V600E inhibitory activity of designed new compounds (preliminary pharmacological evaluation); format: biochemical; conditions: for pIC50: preliminary biological tests
Text: (§1) The designed molecules were synthesized and the preliminary pharmacological evaluation would be used to verify the biological activity and our design strategy.

[6] = target: KDR (Homo sapiens, UniProt P35968); assay: KDR inhibitory activity of designed new compounds (preliminary pharmacological evaluation); format: biochemical; conditions: for pIC50: preliminary biological tests
Text: as §1

[7] = target: T1, B-Raf^V600E; assay: B-Raf^V600E kinase inhibition (literature data set); format: biochemical; conditions: −log IC50 of literature IC50; read-out: B-Raf Actual pIC50 (converted)
Description: The IC50 values of all compounds for B-Raf and KDR inhibition were converted to the −log IC50 (pIC50) as dependent variables in the 3D-QSAR analysis. The 3D structures for all 40 compounds were built and minimized, and then Gasteiger-Hückel charge was calculated. All works were all done in SYBYL 6.9 (Tripos, Inc.: St. Louis, MO, USA, 2002).

[8] = target: T2, VEGFR2; assay: VEGFR2 (KDR) kinase inhibition (literature data set); format: biochemical
Description: The IC50 values of all compounds for B-Raf and KDR inhibition were converted to the −log IC50 (pIC50) as dependent variables in the 3D-QSAR analysis. The 3D structures for all 40 compounds were built and minimized, and then Gasteiger-Hückel charge was calculated.

Chain of KDR (P35968 20-1356): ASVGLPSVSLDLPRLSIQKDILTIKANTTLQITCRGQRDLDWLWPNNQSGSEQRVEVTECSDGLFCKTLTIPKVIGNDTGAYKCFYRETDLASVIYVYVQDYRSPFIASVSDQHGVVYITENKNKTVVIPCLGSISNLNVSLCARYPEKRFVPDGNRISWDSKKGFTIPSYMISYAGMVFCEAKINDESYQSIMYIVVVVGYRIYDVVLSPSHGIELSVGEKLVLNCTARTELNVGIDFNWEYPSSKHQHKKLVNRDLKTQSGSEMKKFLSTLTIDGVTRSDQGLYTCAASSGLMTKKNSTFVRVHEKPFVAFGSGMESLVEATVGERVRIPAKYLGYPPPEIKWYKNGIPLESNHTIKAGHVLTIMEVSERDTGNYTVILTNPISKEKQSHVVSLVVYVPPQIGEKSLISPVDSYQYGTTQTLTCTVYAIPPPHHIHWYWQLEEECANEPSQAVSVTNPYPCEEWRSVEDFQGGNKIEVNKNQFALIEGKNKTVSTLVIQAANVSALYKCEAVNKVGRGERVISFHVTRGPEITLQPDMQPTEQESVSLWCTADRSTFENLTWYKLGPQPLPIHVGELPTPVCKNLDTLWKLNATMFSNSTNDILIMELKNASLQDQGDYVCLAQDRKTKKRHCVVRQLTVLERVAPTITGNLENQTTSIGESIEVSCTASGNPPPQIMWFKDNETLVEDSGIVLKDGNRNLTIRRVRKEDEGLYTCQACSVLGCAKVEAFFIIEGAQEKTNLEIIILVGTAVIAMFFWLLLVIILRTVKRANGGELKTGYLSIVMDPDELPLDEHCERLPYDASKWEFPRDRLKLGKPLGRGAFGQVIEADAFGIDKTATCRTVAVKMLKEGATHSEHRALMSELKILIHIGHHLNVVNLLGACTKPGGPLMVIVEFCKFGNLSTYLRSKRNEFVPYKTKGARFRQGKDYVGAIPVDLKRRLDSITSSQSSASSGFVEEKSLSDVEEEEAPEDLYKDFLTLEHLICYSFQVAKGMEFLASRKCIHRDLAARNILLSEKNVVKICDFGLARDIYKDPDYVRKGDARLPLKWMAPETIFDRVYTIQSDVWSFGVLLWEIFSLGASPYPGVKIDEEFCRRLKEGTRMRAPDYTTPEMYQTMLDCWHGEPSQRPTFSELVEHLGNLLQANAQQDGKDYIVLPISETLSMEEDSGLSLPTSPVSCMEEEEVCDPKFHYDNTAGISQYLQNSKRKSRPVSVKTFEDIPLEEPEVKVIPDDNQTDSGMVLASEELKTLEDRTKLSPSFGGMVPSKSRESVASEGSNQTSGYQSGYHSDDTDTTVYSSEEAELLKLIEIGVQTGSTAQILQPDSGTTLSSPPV
T2 sequence (P35968 806-1171): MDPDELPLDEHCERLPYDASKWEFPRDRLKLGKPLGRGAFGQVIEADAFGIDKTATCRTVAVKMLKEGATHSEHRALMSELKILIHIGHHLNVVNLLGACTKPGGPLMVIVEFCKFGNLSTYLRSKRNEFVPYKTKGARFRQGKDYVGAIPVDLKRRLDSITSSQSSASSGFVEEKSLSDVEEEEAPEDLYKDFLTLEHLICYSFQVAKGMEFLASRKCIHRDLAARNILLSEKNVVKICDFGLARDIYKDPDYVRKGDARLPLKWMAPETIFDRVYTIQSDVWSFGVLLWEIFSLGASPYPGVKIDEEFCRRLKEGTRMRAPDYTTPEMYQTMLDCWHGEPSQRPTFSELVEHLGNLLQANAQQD
T1 sequence (P15056 whole entry V600E): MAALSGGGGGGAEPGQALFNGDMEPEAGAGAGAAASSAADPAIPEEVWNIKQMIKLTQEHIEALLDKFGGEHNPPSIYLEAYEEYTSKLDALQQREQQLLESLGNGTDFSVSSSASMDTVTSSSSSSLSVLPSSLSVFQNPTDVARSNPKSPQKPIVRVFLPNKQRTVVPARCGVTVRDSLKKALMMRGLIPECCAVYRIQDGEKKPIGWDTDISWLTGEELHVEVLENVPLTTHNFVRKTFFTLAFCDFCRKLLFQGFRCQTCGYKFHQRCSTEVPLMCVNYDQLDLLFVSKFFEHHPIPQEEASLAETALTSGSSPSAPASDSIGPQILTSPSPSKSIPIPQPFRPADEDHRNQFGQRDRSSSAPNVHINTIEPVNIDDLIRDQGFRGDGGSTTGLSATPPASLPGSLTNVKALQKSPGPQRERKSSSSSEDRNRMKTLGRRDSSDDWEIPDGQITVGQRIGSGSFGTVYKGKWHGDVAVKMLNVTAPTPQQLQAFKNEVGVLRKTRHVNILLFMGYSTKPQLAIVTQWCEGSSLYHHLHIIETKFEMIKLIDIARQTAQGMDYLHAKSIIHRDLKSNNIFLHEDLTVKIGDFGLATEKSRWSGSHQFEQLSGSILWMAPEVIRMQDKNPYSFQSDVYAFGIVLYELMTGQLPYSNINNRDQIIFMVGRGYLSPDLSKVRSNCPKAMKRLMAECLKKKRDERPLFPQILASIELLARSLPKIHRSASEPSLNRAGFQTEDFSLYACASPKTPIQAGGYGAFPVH

pIC50 [5] | pIC50 [6] | Actual pIC50 KDR [6] | Structure (SMILES) | pIC50 [1] | pIC50 [2] | IC50 [7] | pIC50 [8] | other results
– | – | – | N#CC1(c2cccc(C(=O)Nc3cc(Oc4ccc5nc(NC(=O)C6CC6)sc5n4)ccc3F)c2Cl)CC1 [Compound 0JA] | 8.15 | 8.66 | – | – | pIC50 [3]: 7.92; pIC50 [4]: 8.82
< 5.30 | 5.82 | – | CC(C)NC(=O)c1nc2ccc(C(=O)c3cccc(NC(=O)Nc4cccc(C(F)(F)F)c4)c3)cc2[nH]1 [Compound D7] | – | – | – | – | –
6.55 | 6.00 | 6.00 | CNC(=O)c1nc2ccc(C(=O)c3cccc(NC(=O)c4ccc(C)cc4)c3)cc2[nH]1 [Compound D1] | – | – | – | – | Actual pIC50 B-Raf [5]: 6.55
< 5.30 | 6.05 | 6.05 | CNC(=O)c1nc2ccc(C(=O)c3cccc(NC(=O)c4cccc(F)c4)c3)cc2[nH]1 [Compound D4] | – | – | – | – | –
< 5.30 | 5.88 | – | O=C(Nc1cccc(C(=O)c2ccc3nc(C(=O)NC4CC4)[nH]c3c2)c1)Nc1cccc(C(F)(F)F)c1 [Compound D8] | – | – | – | – | –
6.38 | 6.68 | 6.68 | CNC(=O)c1nc2ccc(C(=O)c3cccc(NC(=O)c4cccc(Cl)c4)c3)cc2[nH]1 [Compound D2] | – | – | – | – | Actual pIC50 B-Raf [5]: 6.38
< 5.30 | 6.02 | 6.02 | CNC(=O)c1nc2ccc(C(=O)c3cccc(NC(=O)c4ccc(Cl)cc4)c3)cc2[nH]1 [Compound D3] | – | – | – | – | –
– | – | – | O=C(Nc1cccc(Oc2ccc3nc(NC(=O)C4CCC4)cn3n2)c1)c1cccc(C(F)(F)F)c1 [Compound 1-5] | 7.55 | 8.32 | 28.2 nM | 8.32 | –
6.82 | < 5.30 | – | CNC(=O)c1nc2ccc(C(=O)c3cccc(NC(=O)c4ccc(Cl)c(Cl)c4)c3)cc2[nH]1 [Compound D5] | – | – | – | – | Actual pIC50 B-Raf [5]: 6.82
– | – | – | CCC(=O)Nc1cn2nc(Oc3cccc(NC(=O)c4cccc(C(F)(F)F)c4)c3)ccc2n1 [Compound 1-3] | 8.16 | 8.77 | 6.92 nM | 8.77 | –
< 5.30 | 6.41 | 6.41 | CCNC(=O)c1nc2ccc(C(=O)c3cccc(NC(=O)c4cccc(C(F)(F)F)c4)c3)cc2[nH]1 [Compound D6] | – | – | – | – | –
– | – | – | CC(=O)Nc1nc2cnc(Oc3cc(NC(=O)c4cccc(CCC#N)c4)ccc3C)nc2s1 [Compound 4-1] | 7.29 | 6.39 | 51.3 nM | 6.39 | –
– | – | – | CC(C)(C#N)c1cccc(C(=O)Nc2cccc(Oc3ccc4nc(NC(=O)C5CC5)sc4c3)c2)c1 [Compound 2-5] | 7.60 | 7.85 | 25.1 nM | 7.85 | –
